Experimental data: patent US12569482B2, “Methods and compositions for treating idiopathic pulmonary fibrosis” (priority 2018, dated 2026)

Experiments:
[1] = test system: bleomycin-induced lung fibrosis; assay: Bleomycin induced IPF mouse model, Example 2 (oral itraconazole, nintedanib or combination); format: in vivo, C57BL/6 mice
Procedure: The animals in the Control group were administered intratracheally with PBS at a dose of 2 mL/kg while the others were administered intratracheally with bleomycin (Cat #HY-17565, MCE) at a dose of 0.66 mg/kg. On Day 5, the mice with bleomycin treatment were divided into four groups at random (referred to as Group 2-5, n=10), and orally administered with vehicle (DMSO: PEG400=1:[…]), itraconazole ([…] Co. Ltd. prepared in DMSO/PEG400 with a final concentration of 1.5 mg/mL), nintedanib ([…] Co. […] The mice in the Control group was administered with vehicle (DMSO/PEG400) at a daily dose of 10 mL/kg. Mice body weights were measured and recorded on Day 1, 5, 12, 19 and 21.

[2] = test system: bleomycin-induced pulmonary fibrosis; assay: Bleomycin mouse model of pulmonary fibrosis, Example 3 (itraconazole inhalation, oral nintedanib); format: in vivo, ICR mice; conditions: oral 60 mg/kg
Procedure: Iodine was used to disinfect the neck hair and skin. Later, the neck skin was cut to expose the trachea. 50 μL of PBS or bleomycin hydrochloride (Hisun Pfizer pharmaceutical Co., LTD, 17001711) in 0.9% sodium chloride solution ([…], i.e., […]) was quickly sprayed as mist into the trachea of mice from the Control Group or the other group with a high pressure syringe connected to a spraying nozzle. At the end, the skin was sutured and disinfected, and the mice were returned to the cages for recovery. On Day 5, the mice treated with bleomycin were divided into six groups at random (referred to as Group 2-7). […] For itraconazole inhalation, each mouse was placed in a 16×13×9 (length×width×height in cm) cabinet. Itraconazole preparation of 5, 15 or 50 mg/mL was sprayed into the cabinet with a compressed nebulizer. [table] Twenty-four hours after the last drug administration, the mice were sacrificed by dislocation of cervical vertebra. The trachea was isolated and intubated. The upper lobe of the left lung was ligated. […] The total number of leukocytes in the BALF was counted. The BALF was centrifuged at 2000 rpm/min for 10 min at 4° C. The supernatant was collected and stored at -80° C. for cytokine measurement, and the deposit was smeared on glass slides. After air drying at room temperature, the slides were subjected to Wright's-Giemsa staining. The number of neutrophils, lymphocytes and macrophages were counted under a microscope from a total of 200 cells for each slide. The upper left lung tissues were used for measuring the level of hydroxyproline, and the lower part was fixed in formalin for H&E staining and Masson's staining. The level of hydroxyproline in the lung tissues was measured using a Hydroxyproline Assay kit (Nanjing JianCheng Bioengineering Institute). The level of TGF-β1 in 100 μL BALF was determined using a mouse TGF-β1 ELISA kit (Beijing 4A Biotech Co., LTD), and the level of type I collagen (Col I) in 100 μL BALF was determined using a mouse Collagen Type I ELISA kit (CUSABIO BIOTEH). […] Then, the lung tissues were sectioned into 4 μm-thick sections for H&E staining and Masson's staining. H&E staining was used to observe the alveolar hyperemia, the infiltration or aggregation of neutrophils in the alveolar space or the vascular wall, and the thickening of alveolar septum or the formation of hyaline membranes. The degree of fibrosis in the lesions with H&E staining was observed under microscope and scored using a semi-quantitative Ashcroft scoring criteria below. Grade 0: Normal tracheal bronchoalveolar structures; Grade 1: Minimal fibrous thickening of alveolar or bronchiolar walls; Grade 3: Moderate thickening of walls without obvious damage to lung architecture; Grade 5: Increased fibrosis with definite damage to lung structure and formation of fibrous bands or small fibrous masses; Grade 7: Severe distortion of structure and large fibrous areas, with honeycomb lung placed in this category; Grade 8: Total fibrous obliteration. The severity of fibrosis between two odd numbers was considered as the corresponding even number. On the other hand, IOD value of positive Masson's staining site was measured by Image pro software for analysis. The data were tested for the homogeneity of variance. If the variance was homogenous (p>0.05), a single factor variance analysis was performed. The Dunnet test was performed for the differences between each dose group and the control group. If the variance was heterogenous (p 0.05), a non-parametric test was conducted, followed by the […] test for examining the differences between each dose group and the control group. The difference was considered significant when p<0.05.

[3] = compared to model group, 15 mg/kg, 60 mg/kg, 15+60 mg/kg p.o. daily

COC(=O)c1ccc2c(c1)NC(=O)/C2=C(\Nc1ccc(N(C)C(=O)CN2CCN(C)CC2)cc1)c1ccccc1 [nintedanib]
BALF collagen level [1, 3]: reduced
BALF neutrophil number [1, 3]: reduced
lung inflammation area [1, 3]: significantly reduced
modified Ashcroft score [1, 3]: significantly reduced
α-SMA staining area [1, 3]: significantly reduced
mice body weight ([1]; itraconazole 15 mg/kg, nintedanib 60 mg/kg, 15+60 mg/kg p.o. daily Day 5-21): inhibited bleomycin-induced body weight reduction to some extent
level of Col I in the BALF [2]: did not reduce
number of lymphocytes and macrophages in the BALF [2]: had no effects
pathological changes of lung tissues (H&E staining) [2]: significantly reduced the infiltration of neutrophils and macrophages and the thickening of alveolar septum
collagen deposition in the lung tissues (Masson's staining IOD) ([2]; p<0.001): significantly reduced the collagen deposition
level of TGF-β1 in the BALF ([2]; p<0.001): significantly reduced
level of hydroxyproline in the lung tissues ([2]; p<0.01): significantly reduced
neutrophils in the BALF ([2]; p<0.01): significantly reduced
semi-quantitative Ashcroft Score ([2]; p<0.01): significantly reduced the pulmonary fibrosis
total number of leukocytes in the BALF ([2]; p<0.01): significantly reduced
